Data published in US11826351B2, “Compounds useful as kinase inhibitors” (Loxo Oncology, Inc., priority 2015, dated 2023).

Tests used:
[1] = target: T1, Recombinant BTK^C481S kinase (Homo sapiens, UniProt Q06187, C481S); experiment: BTK C481S binding affinity (LanthaScreen TR-FRET); settings: Kinase Tracer 236, 5 h incubation
T1 construct: purchased SignalChem
Method in brief: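 BTK C481S tracer-displacement TR-FRET: 5 nM His-tagged kinase, 2 nM Eu anti-His antibody and 30 nM Kinase Tracer 236 incubated with titrated inhibitor for 5 h in Kinase Buffer A. Read at 340 nm excitation, 615/665 nm emission; IC50 from variable-slope log[inhibitor]–response fit.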

Recombinant EGFR = target: T2, Recombinant EGFR (Homo sapiens, UniProt P00533); experiment: EGFR binding affinity (LanthaScreen TR-FRET); settings: Kinase Tracer 199, 5 h incubation
T2 construct: purchased Invitrogen
Method in brief: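 Compounds were titrated against recombinant EGFR and binding was followed by LanthaScreen time-resolved FRET.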

[2] = tested on: OCI-Ly10 human DLBCL cells; experiment: OCI-Ly10 anti-proliferative activity (Resazurin); assay type: cell-based; settings: Homo sapiens, OCI-Ly10, 72 h, OCI-Ly10 cells, 72 h compound treatment, Resazurin; read-out: Proliferation Assay OCI-Ly10-20% FBS
Method in brief: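 A separate untreated plate gave the Day 0 reading, measured by Resazurin fluorescence at 590 nm after 5 h. The average Day 0 value was subtracted from each treated well, and results were expressed as percent of DMSO control. IC50 values came from a log[Inhibitor] vs response Variable Slope fit in Graphpad prism.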

[3] = target: T3, Recombinant BTK^WT kinase (Homo sapiens, UniProt Q06187); experiment: BTK WT binding affinity (LanthaScreen TR-FRET); settings: Kinase Tracer 236, 5 h incubation
T3 construct: purchased Invitrogen
Method in brief: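 IC50 obtained by variable-slope fit of TR-FRET signal (ex 340 nm; em 615 and 665 nm) versus inhibitor concentration. Reaction held for 5 h in LanthaScreen Kinase Buffer A with 2.5 nM His-tagged BTK^WT, 15 nM Kinase Tracer 236 and 2 nM Eu anti-His antibody.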

T3 sequence (Q06187 whole entry): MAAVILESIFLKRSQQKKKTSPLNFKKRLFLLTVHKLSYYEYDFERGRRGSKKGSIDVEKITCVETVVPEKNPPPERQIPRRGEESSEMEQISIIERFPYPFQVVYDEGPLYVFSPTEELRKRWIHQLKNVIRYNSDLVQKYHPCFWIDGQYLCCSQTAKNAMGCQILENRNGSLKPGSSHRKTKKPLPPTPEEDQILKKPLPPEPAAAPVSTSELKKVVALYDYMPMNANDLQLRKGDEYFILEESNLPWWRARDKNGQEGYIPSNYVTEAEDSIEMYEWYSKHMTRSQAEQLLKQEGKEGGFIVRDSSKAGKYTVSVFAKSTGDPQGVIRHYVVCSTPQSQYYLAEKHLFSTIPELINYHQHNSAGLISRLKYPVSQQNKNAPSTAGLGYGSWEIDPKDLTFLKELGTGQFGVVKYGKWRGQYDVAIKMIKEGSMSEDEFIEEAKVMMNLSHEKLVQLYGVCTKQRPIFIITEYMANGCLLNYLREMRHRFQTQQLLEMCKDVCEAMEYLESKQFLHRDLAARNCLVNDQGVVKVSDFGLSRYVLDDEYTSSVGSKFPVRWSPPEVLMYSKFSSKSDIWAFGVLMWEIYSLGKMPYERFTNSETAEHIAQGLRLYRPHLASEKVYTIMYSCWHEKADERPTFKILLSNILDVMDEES
T1 sequence (Q06187 whole entry C481S): as the sequence (Q06187 whole entry) above, with C481S counted along it
T2 sequence (P00533 25-1210): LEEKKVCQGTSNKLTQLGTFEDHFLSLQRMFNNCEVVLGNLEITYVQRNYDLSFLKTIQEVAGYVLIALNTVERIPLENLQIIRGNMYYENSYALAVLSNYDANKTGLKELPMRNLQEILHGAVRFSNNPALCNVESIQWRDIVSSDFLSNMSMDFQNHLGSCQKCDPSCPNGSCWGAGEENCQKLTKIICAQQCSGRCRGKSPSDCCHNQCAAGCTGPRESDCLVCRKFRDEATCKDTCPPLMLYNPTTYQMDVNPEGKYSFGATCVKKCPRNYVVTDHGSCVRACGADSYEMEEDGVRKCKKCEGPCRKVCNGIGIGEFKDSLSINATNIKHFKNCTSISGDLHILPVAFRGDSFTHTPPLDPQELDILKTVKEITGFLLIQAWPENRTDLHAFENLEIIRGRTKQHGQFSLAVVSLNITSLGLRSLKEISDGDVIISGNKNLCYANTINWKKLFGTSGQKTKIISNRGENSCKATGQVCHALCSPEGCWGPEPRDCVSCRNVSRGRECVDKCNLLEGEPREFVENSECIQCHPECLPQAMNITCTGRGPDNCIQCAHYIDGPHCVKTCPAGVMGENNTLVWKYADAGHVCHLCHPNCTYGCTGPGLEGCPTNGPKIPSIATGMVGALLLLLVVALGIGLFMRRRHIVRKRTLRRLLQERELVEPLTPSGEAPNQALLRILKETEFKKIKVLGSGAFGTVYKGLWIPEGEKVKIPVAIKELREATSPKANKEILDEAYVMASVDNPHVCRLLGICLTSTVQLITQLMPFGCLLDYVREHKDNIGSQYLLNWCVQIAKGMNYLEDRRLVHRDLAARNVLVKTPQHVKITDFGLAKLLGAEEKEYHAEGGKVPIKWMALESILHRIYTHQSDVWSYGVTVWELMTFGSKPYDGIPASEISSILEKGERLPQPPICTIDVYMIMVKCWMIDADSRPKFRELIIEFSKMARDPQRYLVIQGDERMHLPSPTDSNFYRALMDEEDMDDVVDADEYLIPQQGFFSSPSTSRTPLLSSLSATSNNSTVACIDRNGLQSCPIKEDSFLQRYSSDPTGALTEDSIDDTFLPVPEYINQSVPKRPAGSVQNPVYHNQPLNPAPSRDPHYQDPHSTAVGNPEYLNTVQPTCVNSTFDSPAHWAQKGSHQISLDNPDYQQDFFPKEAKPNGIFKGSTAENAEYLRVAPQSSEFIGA

Row | Compound | IC50 [1] [nM] | IC50 (Recombinant EGFR) [nM] | IC50 [2] [nM] | IC50 [3] [nM]
1 | COc1ccc(F)cc1C(=O)NCc1ccc(-c2nn(CC(F)(F)F)c(N)c2C(N)=O)cc1 [Example 122, 5-amino-3-[4-[[(5-fluoro-2-methoxy-benzoyl)amino]methyl]phenyl]-1-(2,2,2-trifluoroethyl)pyrazole-4-carboxamide] | < 10 | 1000 to 10000 | 10 to 100 | < 10
2 | COc1ccc(F)cc1C(=O)NCc1ccc(-c2nn(C3CCOCC3)c(N)c2C(N)=O)cc1F [Example 123, 5-amino-3-[3-fluoro-4-[[(5-fluoro-2-methoxy-benzoyl)amino]methyl]phenyl]-1-tetrahydropyran-4-yl-pyrazole-4-carboxamide] | < 10 | 1000 to 10000 | 100 to 1000 | < 10
3 | COc1ccccc1C(=O)NCc1ccc(-c2nn(CC(F)(F)F)c(N)c2C(N)=O)c(F)c1 [Example 124, 5-amino-3-[2-fluoro-4-[[(2-methoxybenzoyl)amino]methyl]phenyl]-1-(2,2,2-trifluoroethyl)pyrazole-4-carboxamide] | 10 to 100 | 1000 to 10000 | 100 to 1000 | 10 to 100
4 | COc1ccc(F)cc1C(=O)NCc1ccc(-c2nn(CC(F)(F)F)c(N)c2C(N)=O)c(F)c1 [Example 125, 5-amino-3-[2-fluoro-4-[[(5-fluoro-2-methoxy-benzoyl)amino]methyl]phenyl]-1-(2,2,2-trifluoroethyl)pyrazole-4-carboxamide] | < 10 | > 10000 | 100 to 1000 | 10 to 100
5 | COc1ccccc1C(=O)NCc1ccc(-c2nn(C(C)C(F)F)c(N)c2C(N)=O)cc1 (centres unmarked) [Example 126, 5-amino-1-(2,2-difluoro-1-methyl-ethyl)-3-[4-[[(2-methoxybenzoyl)amino]methyl]phenyl]pyrazole-4-carboxamide] | < 10 | 1000 to 10000 | 100 to 1000 | 10 to 100
6 | COc1ccc(F)cc1C(=O)NCc1ccc(-c2nn(C3CCCOC3)c(N)c2C(N)=O)cc1F (centres unmarked) [Example 127, 5-amino-3-[3-fluoro-4-[[(5-fluoro-2-methoxy-benzoyl)amino]methyl]phenyl]-1-tetrahydropyran-3-yl-pyrazole-4-carboxamide] | < 10 | 1000 to 10000 | 10 to 100 | < 10
7 | COc1ccc(F)cc1C(=O)NCc1ccc(-c2nn(CC(F)(F)F)c(N)c2C(N)=O)cc1F [Example 128, 5-amino-3-[3-fluoro-4-[[(5-fluoro-2-methoxy-benzoyl)amino]methyl]phenyl]-1-(2,2,2-trifluoroethyl)pyrazole-4-carboxamide] | < 10 | 1000 to 10000 | 10 to 100 | < 10
8 | COc1ccccc1C(=O)NCc1ccc(-c2nn(CC(F)(F)F)c(N)c2C(N)=O)cc1F [Example 129, 5-amino-3-[3-fluoro-4-[[(2-methoxybenzoyl)amino]methyl]phenyl]-1-(2,2,2-trifluoroethyl)pyrazole-4-carboxamide] | < 10 | 1000 to 10000 | 100 to 1000 | < 10
9 | COc1ccccc1C(=O)NCc1ccc(-c2nn(C3CCCC3)c(N)c2C(N)=O)c(F)c1 [Example 130, 5-amino-1-cyclopentyl-3-[2-fluoro-4-[[(2-methoxybenzoyl)amino]methyl]phenyl]pyrazole-4-carboxamide] | < 10 | 1000 to 10000 | 10 to 100 | < 10
10 | COc1ccccc1C(=O)NCc1ccc(-c2nn(C(C)C3CC3)c(N)c2C(N)=O)cc1 (centres unmarked) [Example 131, 5-amino-1-(1-cyclopropylethyl)-3-[4-[[(2-methoxybenzoyl)amino]methyl]phenyl]pyrazole-4-carboxamide] | < 10 | 100 to 1000 | 10 to 100 | < 10
11 | COc1ccccc1C(=O)NCc1ccc(-c2nn(C3CCCC3)c(N)c2C(N)=O)cn1 [Example 134, 5-amino-1-cyclopentyl-3-[6-[[(2-methoxybenzoyl)amino]methyl]-3-pyridyl]pyrazole-4-carboxamide] | 10 to 100 | > 10000 | 1000 to 10000 | 10 to 100
